Test results as given in publication PMC6344423, “Opposing Actions of Adrenocorticotropic Hormone and Glucocorticoids on UCP1-Mediated Respiration in Brown Adipocytes” (Frontiers in Physiology, 2019).
pEC50: −log10 of the molar value. Ends that are not written are not given here.

How the values were obtained:
primary brown adipocytes = assay: Microplate-based respirometry (XF96), UCP1-mediated uncoupled respiration; format: cell-based, mouse; settings: for Stimulated respiration (UCP1-dependent uncoupled respiration) as fold increase of basal leak respiration, GsPCR ligand screen: primary brown adipocytes (129S6 mice), acute addition after oligomycin 5 μM, medium with 1–2% fatty acid free BSA, 37°C, n = 5, Figures 1B,C; for Stimulated respiration (fold increase of basal leak), ACTH heptapeptide fragments: fragments 1 μM, n = 4, Figures 4A,B,D,E
Protocol: Oxygen consumption of primary brown adipocytes was measured at 37°C using microplate-based respirometry (XF96 extracellular flux analyzer, Seahorse Bioscience) as described previously ([Li et al., 2014b]) following the subsequent protocol at day 7 of differentiation. Prior to the respiration measurement, primary cells were washed with warmed, unbuffered assay medium (DMEM basal medium supplemented with 25 mM glucose, 31 mM NaCl, 2 mM GlutaMax and 15 mg/l phenol red, pH 7.4) (basal assay medium). Subsequent to the medium replacement with basal assay medium containing 1–2% essentially fatty acid free bovine serum albumin (BSA), cells were incubated at 37°C in a CO2-free incubator for 1 h. Assay reagents were loaded into the drug injections ports of the sensor cartridges at 10X in basal assay medium (no BSA). After assessment of basal oxygen consumption in untreated cells oligomycin (5 μM) was injected to inhibit coupled respiration and to determine basal leak respiration. Next, effector was added to investigate UCP1-dependant uncoupled respiration. By the addition of FCCP (1 μM) maximal respiratory capacity was determined. Lastly, non-mitochondrial oxygen consumption was assessed by blocking mitochondrial respiration with antimycin A (5 μM). For some experiments, cells were pretreated for 1 h with 50 μM H89 (PKA inhibitor), 1–100 μM propranolol (β-adrenergic receptor antagonist), 40 μM Atglistatin (ATGL inhibitor) and 40 μM Hi76-0079 (HSL inhibitor) 1 h prior to the measurement. Oxygen consumption rates were automatically calculated by the Seahorse XF-96 software. Each experiment was repeated at least three times with similar results and five to eight replicate wells for every condition in each independent experiment. Results are predominately expressed as stimulated respiration which is calculated as fold increase of basal leak.
In our first screen, we tested whether these GsPCR ligands can activate oxygen consumption acutely in brown adipocytes. UCP1-mediated uncoupled respiration was quantified in cultured adherent intact primary brown adipocytes, according to a protocol established in our lab ([Li et al., 2014b]). After recording basal respiration and the fraction of coupled and uncoupled respiration, UCP1-dependent respiration was measured. Finally, maximal respiratory capacity and non-mitochondrial oxygen consumption were assessed by adding the uncoupling agent carbonyl cyanide 4-(trifluoromethoxy) phenylhydrazone (FCCP) and antimycin A was added to block the electron transport chain, respectively. All respiration assays were performed in the presence of BSA to buffer free fatty acid (FFA) levels in the respiration medium.

[1] = test system: Ucp1 gene expression in primary brown adipocytes of Ucp1^ki/ki mice; assay: Luciferase assay, FLUC activity as surrogate for Ucp1 expression; format: cell-based, mouse; settings: overnight stimulation, normalized to total protein content, n = 3, Figure 1D
Protocol: After overnight stimulation of primary brown adipocytes of Ucp1^ki/ki mice luciferase activity was assayed using a commercial kit system (Luciferase Assay System Freezer Pack E4030, Promega GmbH). Primary cells were lysed in 1x reporter lysis buffer by shaking for 20 min at room temperature. 10 μl lysate was mixed with 50 μl luciferase assay substrate solution, and the mixture was measured by FB12 in a luminometer (Single Tube Luminometer, Titertek-Berthold GmbH). Bioluminescence readouts were normalized to total protein content.
We then measured FLUC activity in primary brown adipocytes from Ucp1^ki/ki reporter gene mice to determine the effect of the GsPCR ligands on Ucp1 gene expression in response to overnight stimulation. As the expression of Fluc in these cells is driven by Ucp1promoter, FLUC activity served as a surrogate for Ucp1 expression.

[2] = test system: cytosolic cAMP in primary brown adipocytes; assay: Quantification of cellular cAMP (cAMP-Glo Assay); format: cell-based, mouse
Protocol: Changes in cytosolic cAMP concentrations were determined in primary brown adipocytes in response to ACTH- or isoproterenol stimulation using cAMP-Glo Assay (Promega) following the manufacturer’s instructions.

[3] = test system: Ucp1 mRNA in primary brown adipocytes; assay: Ucp1 gene expression analysis (qRT-PCR), brown adipocytes; format: cell-based, mouse; settings: for Ucp1 mRNA expression, ACTH heptapeptide fragments: normalized to Gtf2b, n = 4, Figures 4C,F
Protocol: (§1) Total RNA was isolated using Trisure (Bioline) and purified with SV total RNA Isolation System (Promega). Reverse transcriptase reactions were performed using SensiFAST cDNA Synthesis Kit (Bioline). Quantitative real-time PCR (qRT-PCR) was performed with SYBR green fluorescent dye in 384-well format using LightCycler 480 (Roche). General Transcription Factor IIB (Gtf2b) served as an internal control. To be able to calculate relative gene expression levels of samples, standard reactions containing serial diluted pooled cDNA of all samples (Pure, 1:2, 1:4, 1:8, 1:16, 1:32 and 1:64) as a template were used to establish a standard curve. The RNA abundance of Ucp1 gene was normalized to the housekeeping gene Gtf2b. The following primers were used: […]

release of FFAs = settings: lipolysis as criterion of potency; ref Draper et al., 1973; cited from earlier work
From the text: The heptapeptide sequence, Met-Glu-His-Phe-Arg-Trp-Gly, is common to all the adrenocorticotropic (ACTH), melanotropic (MSH), and lipotropic (LPH) hormones.

[4] = test system: Ucp1 mRNA and UCP1 protein; design: method as in Soumano et al., 2000; van den Beukel et al., 2014; settings: ref Soumano et al., 2000; van den Beukel et al., 2014; cited from earlier work
From the text: To address the physiological role of ACTH in brown fat thermogenesis we analyzed the expression of its receptor in BAT of mice in response to cold exposure. […] Basically, ACTH triggers the release of glucocorticoids from the cortex of the adrenal gland. Circulating glucocorticoids exert negative feedback control on the […] ...

[5] = test system: melanocortin 2 receptor (Mc2r) expression; assay: Mc2r gene expression (qRT-PCR) in primary brown adipocytes; format: cell-based, mouse; settings: 5 μM Dexa, 0–4 h, n = 4
Protocol: as §1

[6] = test system: β3-adrenergic receptor (Adrb3) expression; assay: Adrb3 gene expression (qRT-PCR) in primary brown adipocytes; format: cell-based, mouse; settings: 5 μM Dexa, 0–4 h, n = 4
Protocol: as §1

[7] = 5 μM Dexa pretreatment, n = 4, Figure 5G

Molecule: O=S(=O)(NCCNC/C=C/c1ccc(Br)cc1)c1cccc2cnccc12 [H89]
- Effect of PKA inhibitor on ACTH-stimulated respiration (primary brown adipocytes; H89 50 μM, ACTH 1 μM, n = 4, Figure 2E): completely blocked the effect on respiration of ACTH

Molecule: thyroid hormone
- FLUC (luciferase) activity as surrogate for Ucp1 expression [1]: no effect on FLUC

Molecule: CC(C)NCC(O)c1ccc(O)c(O)c1 (stereo not drawn) [ISO, isoproterenol]
- pEC50 ([2]; Mus musculus, Adipocyte, 0.5 h, stimulation for 30 min, n = 3, non-linear regression, Figure 2D): 8.03

Molecule: α-MSH: α-melanocyte-stimulating hormone, melanocortin
- FLUC (luciferase) activity as surrogate for Ucp1 expression [1]: moderate rise in FLUC activity
- Stimulated respiration (UCP1-dependent uncoupled respiration) as fold increase of basal leak respiration, GsPCR ligand screen (primary brown adipocytes): weakest effects on cellular respiration

Molecule: MRHFRWG [synACTH(4-10), mutant ACTH fragment, synthetic analog of ACTH(4-10) with amino acid exchange from Glu to Arg]
- Ucp1 mRNA expression, ACTH heptapeptide fragments [3]: comparable to that of the natural heptapeptide
- Activity on the release of FFAs compared to the natural ACTH core sequence (release of FFAs): fourfold increased activity on the release of FFAs
- Stimulated respiration (fold increase of basal leak), ACTH heptapeptide fragments (primary brown adipocytes): mildly increased respiration

Molecule: CCNC(=O)[C@H]1O[C@@H](n2cnc3c(N)nc(NCCc4ccc(CCC(=O)O)cc4)nc32)[C@H](O)[C@@H]1O [CGS21680]
- FLUC (luciferase) activity as surrogate for Ucp1 expression [1]: no effect on FLUC

Molecule: Met-Glu-His-Phe-Arg-Trp-Gly [ACTH(4-10)]
- Ucp1 mRNA expression, ACTH heptapeptide fragments [3]: significantly increased Ucp1 mRNA expression
- Stimulated respiration (fold increase of basal leak), ACTH heptapeptide fragments (primary brown adipocytes): no impact on respiration

Molecule: C[C@]12C[C@H](O)[C@H]3[C@@H](CCC4=CC(=O)CC[C@@]43C)[C@@H]1CC[C@@H]2C(=O)CO [corticosterone]
- Effect on Ucp1 mRNA and UCP1 protein in response to adrenergic stimulation and ACTH treatment [4]: reduces Ucp1 mRNA and UCP1 protein

Molecule: CC(C)NCC(O)COc1cccc2ccccc12 (stereo not drawn) [propranolol]
- Effect of propranolol pre-treatment on ACTH stimulated respiration (primary brown adipocytes; 1 h pretreatment, 1–100 μM propranolol, ACTH 1 μM, n = 4, Figure 2B): did not attenuate ACTH stimulated respiration
- Effect of propranolol pre-treatment on ISO stimulated respiration (primary brown adipocytes; 1 h pretreatment, 1–100 μM propranolol, ISO 0.5 μM, n = 4, Figure 2B): blocking the effect of ISO in a dose-dependent manner

Molecule: PTH: parathyroid hormone, ligand of PTHR
- FLUC (luciferase) activity as surrogate for Ucp1 expression [1]: highest FLUC activities
- Stimulated respiration (UCP1-dependent uncoupled respiration) as fold increase of basal leak respiration, GsPCR ligand screen (primary brown adipocytes): modest compared to ISO

Molecule: CCCCC[C@H](O)/C=C/[C@H]1[C@H](O)CC(=O)[C@@H]1C/C=C\CCCC(=O)O [PGE2, Prostaglandin E2]
- FLUC (luciferase) activity as surrogate for Ucp1 expression [1]: moderate rise in FLUC activity

Molecule: secretin: peptide ligand of the secretin receptor
- FLUC (luciferase) activity as surrogate for Ucp1 expression [1]: highest FLUC activities
- Stimulated respiration (UCP1-dependent uncoupled respiration) as fold increase of basal leak respiration, GsPCR ligand screen (primary brown adipocytes): most prominent induction of UCP1-dependant uncoupled respiration

Molecule: adrenomedullin: ligand for calcitonin receptor-like receptor (CALCRL)
- FLUC (luciferase) activity as surrogate for Ucp1 expression [1]: only had minor effects

Molecule: C[C@@H]1C[C@H]2[C@@H]3CCC4=CC(=O)C=C[C@]4(C)[C@@]3(F)[C@@H](O)C[C@]2(C)[C@@]1(O)C(=O)CO [Dexa, dexamethasone]
- Effect of Dexa on Ucp1 expression ([3]; 4-h treatment, 5 μM Dexa, n = 4): no significant effect on Ucp1 expression
- Effect of Dexa on expression of the melanocortin 2 receptor [5]: not a consequence of reduced or increased expression
- Effect of Dexa on expression of the β3-adrenergic receptor [6]: not a consequence of reduced or increased expression
- Effect of Dexa on ACTH induced rise in cellular cAMP [2, 7]: no such effect was observed for ACTH
- Effect of Dexa on ISO induced rise in cellular cAMP [2, 7]: attenuated the ISO induced rise in cellular cAMP levels
- Effect of Dexa pretreatment on ACTH-induced respiration (primary brown adipocytes; 5 μM Dexa, 0–4 h, n = 4, Figure 5C): unaffected
- Effect of Dexa pretreatment on ISO-stimulated respiration (primary brown adipocytes; 5 μM Dexa, 0–4 h, with increasing exposure time, n = 4, Figure 5C): attenuated ISO-stimulated respiration
- Effect of Dexa on respiration, one-hour pre-treatment or acute stimulation (primary brown adipocytes; 5 μM Dexa, n = 4, Figure 5B): had no effect on respiration
- Effect of DEXA treatment on thermogenic response, 1 h (primary brown adipocytes; DEXA treatment for 1 h): had no effect
- Effect of DEXA treatment on thermogenic response to ISO, 4 h (primary brown adipocytes; extended DEXA treatment for 4 h, compared with 2 h): more pronounced
- Effect of DEXA treatment on thermogenic response to ISO, 2 h (primary brown adipocytes; two hours of DEXA treatment): significant downregulation of the thermogenic response to ISO

Molecule: PACAP: pituitary adenylate cyclase-activating peptide
- FLUC (luciferase) activity as surrogate for Ucp1 expression [1]: highest FLUC activities
- Stimulated respiration (UCP1-dependent uncoupled respiration) as fold increase of basal leak respiration, GsPCR ligand screen (primary brown adipocytes): weakest effects on cellular respiration
